Source: patent publication US20090270416A1, “N-OXIDES OF DIARYLUREA DERIVATIVES AND THEIR USE AS Chk1 INHIBITORS FOR THE TREATMENT OF CANCER” (SENTINEL ONCOLOGY LIMITED, priority 2006, published 2009)

Key:
CHK1 (h) = biological target: T1, CHK1 (h) (Homo sapiens, UniProt O14757); assay: Chk-1 kinase inhibiting activity (Upstate radiometric assay); assay type: biochemical
T1 construct: purchased Upstate Ltd (assay run at Upstate)
T1 sequence (O14757 1-476): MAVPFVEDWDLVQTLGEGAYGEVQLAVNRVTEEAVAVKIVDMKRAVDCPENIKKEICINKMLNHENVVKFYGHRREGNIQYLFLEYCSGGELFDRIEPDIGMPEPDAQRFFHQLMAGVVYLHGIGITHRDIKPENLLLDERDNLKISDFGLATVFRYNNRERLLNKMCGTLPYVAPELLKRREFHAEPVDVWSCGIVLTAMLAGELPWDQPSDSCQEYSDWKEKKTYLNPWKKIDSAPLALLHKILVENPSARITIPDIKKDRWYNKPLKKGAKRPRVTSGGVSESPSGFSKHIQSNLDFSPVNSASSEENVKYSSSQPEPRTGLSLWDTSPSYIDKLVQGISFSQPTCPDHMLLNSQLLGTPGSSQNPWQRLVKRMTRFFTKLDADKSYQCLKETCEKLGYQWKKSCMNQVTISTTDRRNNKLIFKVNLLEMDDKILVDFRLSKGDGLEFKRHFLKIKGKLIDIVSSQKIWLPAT
Protocol: The N-oxide compounds of the invention and their tertiary amine precursors were tested for activity against the Chk-1 kinase.
The Chk-1 assay was conducted at Upstate Ltd, Gemini Crescent, Dundee Technology Park, Dundee, DD2 1 SW, UK in accordance with the protocol set out below. In a final reaction volume of 25 μl, CHK1 (h) (5-10 mU) is incubated with 8 mM MOPS pH 7.0, 0.2 mM EDTA, 200 μM […], 10 mM MgAcetate and γ-33P-ATP] (specific activity approx. 500 cpm/pmol, concentration as required). The reaction is initiated by the addition of the MgATP mix. After incubation for 40 minutes at room temperature, the reaction is stopped by the addition of 5 μl of a 3% phosphoric acid solution. 10 μl of the reaction mixture is then spotted onto a P30 filtermat and washed three times for 5 minutes in 75 mM phosphoric acid and once in methanol prior to drying and scintillation counting.

[1] = biological target: T2, human potassium channel hERG (Homo sapiens, UniProt Q12809); assay: hERG binding activity ([3H] astemizole displacement, HEK-293 membranes); details: 1.5 nM [3H] astemizole; for IC50: 60 minutes at 25° C.; for HERG Binding % @ 100 uM (extent of binding): @ 100 uM test compound
T2 construct: expressed in transfected cells; host or cells: HEK-293
Protocol: The abilities of the N-oxide compounds of the invention and their tertiary amine precursors were tested using the assay described below.
Human recombinant HEK-293 cells stably transfected with a plasmid encoding the human potassium channel hERG were used to prepare membranes in modified HEPES pH 7.4 buffer using standard techniques. A 10 μg aliquot of membrane was incubated with 1.5 nM [^3H] astemizole in the presence of varying concentrations of test compound for 60 minutes at 25° C. The membranes were then filtered and washed three times and the filters were counted to determine the [^3H] astemizole specifically bound. From the counts, the extent of binding of the test compound and, in some cases, the IC50 values of the test compounds, were determined.

hERG potassium channel = biological target: T3, hERG potassium channel (Homo sapiens, UniProt Q12809); assay: Functional hERG assay (patch clamp, HEK-293 cells); assay type: cell-based; details: 5-point dose response, triplicate
T3 construct: expressed in transfected cells; host or cells: HEK-293
Protocol: The N-oxide compounds of the invention and their tertiary amine precursors were each tested for hERG inhibiting activity using the method of Zhou Z, Gong Q, Ye B, Fan Z, Makielski J C, Robertson G A, January C T. Biophys J. 1998 January; 74(1):230-41.
Test compounds were tested in triplicate in a 5-point dose response curve on HEK-293 cells stably expressing the hERG potassium channel. Potassium current was measured using the patch clamp technique on a Molecular Devices Patch Express 7000. hERG channels were activated by 2 second pulses to +20 mV from a holding potential of −80 mV, and peak tail currents were recorded upon repolarization to −50 mV. This voltage-clamp pulse protocol was performed continuously during the experiment (vehicle control, test compound, washout, and positive control additions). An interpulse interval of 15 seconds allowed recovery from any residual inactivation. Test compounds were incubated with cells between 3-8 minutes until the current reached a steady state level, defined by a Standard Deviation of 0.01. After the final test compound concentration was tested, test compound was washed out with continuous perfusion of extracellular solution for 3 minutes, followed by application of positive control (10 μM Cisparide).
Test compounds were diluted in 100% DMSO at 1000× the highest concentration to be tested, vortexed, and sonicated. Visual inspection determined that compounds were completely solubilized. Test compounds were then diluted into glass vials in 100% DMSO for all test concentrations at 1000× the final concentration to be tested and vortexed. Test compounds were then diluted 1:1000 into extracellular solution and vortexed to achieve final concentration for testing. Final DMSO concentration was 0.1% for all concentrations of test compounds, Vehicle (negative) control, and Cisapride (positive) control in extracellular solution. The compositions of the solutions used were as follows:
Intracellular Soln (mM): KCl 130, EDTA 5, MgCl2 5, HEPES10, Na-ATP 5, pH=7.2 Extracellular Soln (mM): NaCl 137, KCl 4, CaCl2 1.8, MgCl2 1, Dextrose 11, HEPES 10, pH=7.4

Flt3(h) = biological target: T4, Flt3(h) (Homo sapiens, UniProt P36888); assay: Kinase selectivity screen (Upstate); assay type: biochemical; details: 10 μM compound; ATP 200 μM; N = 2
T4 construct: purchased Upstate
Protocol: (§1) The compound of Example 1F was tested (Upstate) against a number of other kinases and the results are set out in Table 5 below.

cSRC(h) = biological target: T5, cSRC(h) (Homo sapiens, UniProt P12931); assay: Kinase selectivity screen (Upstate); assay type: biochemical; details: 10 μM compound; ATP 200 μM; N = 2
T5 construct: purchased Upstate
Protocol: as §1

Fms(h) = biological target: T6, Fms(h) (Homo sapiens, UniProt P07333); assay: Kinase selectivity screen (Upstate); assay type: biochemical; details: 10 μM compound; ATP 200 μM; N = 2
T6 construct: purchased Upstate
Protocol: as §1

Aurora-A(h) = biological target: T7, Aurora-A(h) (Homo sapiens, UniProt O14965); assay: Kinase selectivity screen (Upstate); assay type: biochemical; details: 10 μM compound; ATP 15 μM; N = 2
T7 construct: purchased Upstate
Protocol: as §1

CHK2(h) = biological target: T8, CHK2(h) (Homo sapiens, UniProt O96017); assay: Kinase selectivity screen (Upstate); assay type: biochemical; details: 10 μM compound; ATP 70 μM; N = 2
T8 construct: purchased Upstate
Protocol: as §1

JNK1α1(h) = biological target: T9, JNK1α1(h) (Homo sapiens, UniProt P45983); assay: Kinase selectivity screen (Upstate); assay type: biochemical; details: 10 μM compound; ATP 45 μM; N = 2
T9 construct: purchased Upstate
Protocol: as §1

MEK1(h) = biological target: T10, MEK1(h) (Homo sapiens, UniProt Q02750); assay: Kinase selectivity screen (Upstate); assay type: biochemical; details: 10 μM compound; ATP 10 μM; N = 2
T10 construct: purchased Upstate
Protocol: as §1

CDK2/cyclinE(h) = biological target: T11, CDK2/cyclinE(h) (Homo sapiens, UniProt P24941); assay: Kinase selectivity screen (Upstate); assay type: biochemical; details: 10 μM compound; ATP 120 μM; N = 2
T11 construct: purchased Upstate
Protocol: as §1

Yes(h) = biological target: T12, Yes(h) (Homo sapiens, UniProt P07947); assay: Kinase selectivity screen (Upstate); assay type: biochemical; details: 10 μM compound; ATP 45 μM; N = 2
T12 construct: purchased Upstate
Protocol: as §1

cKit(h) = biological target: T13, cKit(h) (Homo sapiens, UniProt P10721); assay: Kinase selectivity screen (Upstate); assay type: biochemical; details: 10 μM compound; ATP 200 μM; N = 2
T13 construct: purchased Upstate
Protocol: as §1

PKA(h) = biological target: T14, PKA(h) (Homo sapiens, UniProt P17612); assay: Kinase selectivity screen (Upstate); assay type: biochemical; details: 10 μM compound; ATP 10 μM; N = 2
T14 construct: purchased Upstate
Protocol: as §1

Tie2(h) = biological target: T15, Tie2(h) (Homo sapiens, UniProt Q02763); assay: Kinase selectivity screen (Upstate); assay type: biochemical; details: 10 μM compound; ATP 200 μM; N = 2
T15 construct: purchased Upstate
Protocol: as §1

ZAP-70(h) = biological target: T16, ZAP-70(h) (Homo sapiens, UniProt P43403); assay: Kinase selectivity screen (Upstate); assay type: biochemical; details: 10 μM compound; ATP 15 μM; N = 2
T16 construct: purchased Upstate
Protocol: as §1

MAPK2(h) = biological target: T17, MAPK2(h) (Homo sapiens, UniProt P28482); assay: Kinase selectivity screen (Upstate); assay type: biochemical; details: 10 μM compound; ATP 155 μM; N = 2
T17 construct: purchased Upstate
Protocol: as §1

EGFR(h) = biological target: T18, EGFR(h) (Homo sapiens, UniProt P00533); assay: Kinase selectivity screen (Upstate); assay type: biochemical; details: 10 μM compound; ATP 10 μM; N = 2
T18 construct: purchased Upstate
Protocol: as §1

KDR(h) = biological target: T19, KDR(h) (Homo sapiens, UniProt P35968); assay: Kinase selectivity screen (Upstate); assay type: biochemical; details: 10 μM compound; ATP 90 μM; N = 2
T19 construct: purchased Upstate
Protocol: as §1

PDGFRβ(h) = biological target: T20, PDGFRβ(h) (Homo sapiens, UniProt P09619); assay: Kinase selectivity screen (Upstate); assay type: biochemical; details: 10 μM compound; ATP 200 μM; N = 2
T20 construct: purchased Upstate
Protocol: as §1

PKCθ(h) = biological target: T21, PKCθ(h) (Homo sapiens, UniProt Q04759); assay: Kinase selectivity screen (Upstate); assay type: biochemical; details: 10 μM compound; ATP 15 μM; N = 2
T21 construct: purchased Upstate
Protocol: as §1

NEK2(h) = biological target: T22, NEK2(h) (Homo sapiens, UniProt P51955); assay: Kinase selectivity screen (Upstate); assay type: biochemical; details: 10 μM compound; ATP 120 μM; N = 2
T22 construct: purchased Upstate
Protocol: as §1

Pim-1(h) = biological target: T23, Pim-1(h) (Homo sapiens, UniProt P11309); assay: Kinase selectivity screen (Upstate); assay type: biochemical; details: 10 μM compound; ATP 90 μM; N = 2
T23 construct: purchased Upstate
Protocol: as §1

IGF-1R(h) = biological target: T24, IGF-1R(h) (Homo sapiens, UniProt P08069); assay: Kinase selectivity screen (Upstate); assay type: biochemical; details: 10 μM compound; ATP 200 μM; N = 2
T24 construct: purchased Upstate
Protocol: as §1

FGFR1(h) = biological target: T25, FGFR1(h) (Homo sapiens, UniProt P11362); assay: Kinase selectivity screen (Upstate); assay type: biochemical; details: 10 μM compound; ATP 200 μM; N = 2
T25 construct: purchased Upstate
Protocol: as §1

other kinases = assay: Kinase selectivity screen (Upstate), panel as a whole; assay type: biochemical, human; details: 10 μM compound; summary of Table 5
Protocol: as §1

T3 sequence (Q12809 whole entry): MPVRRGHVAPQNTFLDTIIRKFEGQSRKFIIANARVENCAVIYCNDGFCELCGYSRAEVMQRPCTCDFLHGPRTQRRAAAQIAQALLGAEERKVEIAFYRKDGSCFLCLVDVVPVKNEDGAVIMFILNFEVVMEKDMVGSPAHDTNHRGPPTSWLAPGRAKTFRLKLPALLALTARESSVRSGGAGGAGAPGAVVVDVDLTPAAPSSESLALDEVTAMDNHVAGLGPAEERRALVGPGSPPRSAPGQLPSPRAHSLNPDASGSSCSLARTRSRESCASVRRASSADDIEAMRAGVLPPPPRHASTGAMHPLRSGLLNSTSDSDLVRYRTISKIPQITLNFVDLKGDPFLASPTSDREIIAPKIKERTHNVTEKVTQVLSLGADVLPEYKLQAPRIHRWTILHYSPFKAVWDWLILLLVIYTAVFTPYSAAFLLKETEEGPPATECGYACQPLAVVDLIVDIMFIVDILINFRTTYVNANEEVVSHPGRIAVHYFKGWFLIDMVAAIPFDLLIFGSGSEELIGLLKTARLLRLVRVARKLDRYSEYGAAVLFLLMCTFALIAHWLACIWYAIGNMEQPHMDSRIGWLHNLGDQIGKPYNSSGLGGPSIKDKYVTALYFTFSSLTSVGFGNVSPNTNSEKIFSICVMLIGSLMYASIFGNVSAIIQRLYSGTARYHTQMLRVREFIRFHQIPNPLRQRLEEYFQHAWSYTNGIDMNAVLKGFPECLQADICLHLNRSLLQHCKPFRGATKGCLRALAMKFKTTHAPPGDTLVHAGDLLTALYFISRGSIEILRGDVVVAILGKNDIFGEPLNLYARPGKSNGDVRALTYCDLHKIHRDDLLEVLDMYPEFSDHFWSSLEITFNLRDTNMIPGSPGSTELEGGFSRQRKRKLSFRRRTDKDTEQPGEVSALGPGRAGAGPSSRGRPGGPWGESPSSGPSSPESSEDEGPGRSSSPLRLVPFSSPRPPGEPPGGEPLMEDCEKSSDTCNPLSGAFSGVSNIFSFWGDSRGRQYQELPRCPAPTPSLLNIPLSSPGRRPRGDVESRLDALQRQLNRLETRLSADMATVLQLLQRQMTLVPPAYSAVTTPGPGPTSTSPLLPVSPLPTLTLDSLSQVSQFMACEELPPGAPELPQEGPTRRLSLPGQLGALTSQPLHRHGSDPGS
T2 sequence (Q12809 whole entry): as above
T18 sequence (P00533 25-1210): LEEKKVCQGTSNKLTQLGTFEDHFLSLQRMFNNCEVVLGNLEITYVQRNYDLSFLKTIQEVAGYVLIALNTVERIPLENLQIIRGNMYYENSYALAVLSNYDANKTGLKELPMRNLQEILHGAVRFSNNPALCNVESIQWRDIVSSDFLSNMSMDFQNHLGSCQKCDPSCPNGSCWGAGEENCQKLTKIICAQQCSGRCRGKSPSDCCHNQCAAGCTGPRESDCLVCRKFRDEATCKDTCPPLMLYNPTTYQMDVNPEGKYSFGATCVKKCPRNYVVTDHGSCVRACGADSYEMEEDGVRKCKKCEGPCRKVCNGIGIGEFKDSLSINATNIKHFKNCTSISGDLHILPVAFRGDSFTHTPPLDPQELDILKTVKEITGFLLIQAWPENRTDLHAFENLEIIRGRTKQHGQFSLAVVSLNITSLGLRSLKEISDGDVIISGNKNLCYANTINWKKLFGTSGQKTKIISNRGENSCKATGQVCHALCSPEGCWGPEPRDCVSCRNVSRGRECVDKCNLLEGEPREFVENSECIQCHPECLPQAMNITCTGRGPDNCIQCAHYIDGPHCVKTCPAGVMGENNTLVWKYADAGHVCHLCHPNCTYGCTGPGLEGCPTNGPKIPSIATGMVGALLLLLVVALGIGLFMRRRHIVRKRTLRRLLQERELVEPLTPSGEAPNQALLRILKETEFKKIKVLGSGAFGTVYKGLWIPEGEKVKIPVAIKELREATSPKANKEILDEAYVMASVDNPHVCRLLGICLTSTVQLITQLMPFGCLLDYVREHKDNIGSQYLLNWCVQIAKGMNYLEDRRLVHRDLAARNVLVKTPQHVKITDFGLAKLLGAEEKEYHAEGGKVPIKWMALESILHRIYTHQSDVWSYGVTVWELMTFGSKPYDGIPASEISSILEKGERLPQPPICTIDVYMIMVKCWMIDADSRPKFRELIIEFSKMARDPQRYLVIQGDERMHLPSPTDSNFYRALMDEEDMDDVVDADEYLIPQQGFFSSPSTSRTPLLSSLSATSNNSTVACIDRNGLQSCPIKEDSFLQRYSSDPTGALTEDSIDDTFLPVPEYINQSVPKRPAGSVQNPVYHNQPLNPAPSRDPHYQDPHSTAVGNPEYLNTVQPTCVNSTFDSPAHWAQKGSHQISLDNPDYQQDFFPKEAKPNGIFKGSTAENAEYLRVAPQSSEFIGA
T9 sequence (P45983 1-384 isoform P45983-2): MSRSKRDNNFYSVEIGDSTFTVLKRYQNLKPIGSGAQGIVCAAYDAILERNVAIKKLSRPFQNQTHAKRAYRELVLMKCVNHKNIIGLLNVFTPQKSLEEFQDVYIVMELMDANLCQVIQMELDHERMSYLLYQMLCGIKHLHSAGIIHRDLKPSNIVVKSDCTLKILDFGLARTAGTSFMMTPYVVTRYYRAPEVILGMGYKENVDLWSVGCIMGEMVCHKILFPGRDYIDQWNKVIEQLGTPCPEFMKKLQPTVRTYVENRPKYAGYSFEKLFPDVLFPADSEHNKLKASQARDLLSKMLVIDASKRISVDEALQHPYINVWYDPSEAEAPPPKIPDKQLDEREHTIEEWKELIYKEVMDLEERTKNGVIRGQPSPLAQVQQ
T16 sequence (P43403 whole entry): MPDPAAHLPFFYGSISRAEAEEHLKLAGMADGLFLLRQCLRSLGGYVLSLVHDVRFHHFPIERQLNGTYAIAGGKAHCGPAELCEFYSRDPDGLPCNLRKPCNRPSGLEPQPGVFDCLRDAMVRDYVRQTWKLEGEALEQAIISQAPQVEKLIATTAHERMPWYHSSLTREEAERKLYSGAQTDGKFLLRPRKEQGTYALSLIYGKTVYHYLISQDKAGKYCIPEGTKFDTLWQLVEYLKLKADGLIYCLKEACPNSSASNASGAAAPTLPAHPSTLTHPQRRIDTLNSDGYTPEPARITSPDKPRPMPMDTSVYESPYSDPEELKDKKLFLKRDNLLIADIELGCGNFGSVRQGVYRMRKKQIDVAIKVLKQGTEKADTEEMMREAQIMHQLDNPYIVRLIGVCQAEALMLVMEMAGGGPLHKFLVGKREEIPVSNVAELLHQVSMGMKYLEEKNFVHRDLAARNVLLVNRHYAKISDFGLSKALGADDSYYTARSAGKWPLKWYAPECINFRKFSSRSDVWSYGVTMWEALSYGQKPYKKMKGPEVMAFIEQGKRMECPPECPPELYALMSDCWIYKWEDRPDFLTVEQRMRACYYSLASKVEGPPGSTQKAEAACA
T22 sequence (P51955 whole entry): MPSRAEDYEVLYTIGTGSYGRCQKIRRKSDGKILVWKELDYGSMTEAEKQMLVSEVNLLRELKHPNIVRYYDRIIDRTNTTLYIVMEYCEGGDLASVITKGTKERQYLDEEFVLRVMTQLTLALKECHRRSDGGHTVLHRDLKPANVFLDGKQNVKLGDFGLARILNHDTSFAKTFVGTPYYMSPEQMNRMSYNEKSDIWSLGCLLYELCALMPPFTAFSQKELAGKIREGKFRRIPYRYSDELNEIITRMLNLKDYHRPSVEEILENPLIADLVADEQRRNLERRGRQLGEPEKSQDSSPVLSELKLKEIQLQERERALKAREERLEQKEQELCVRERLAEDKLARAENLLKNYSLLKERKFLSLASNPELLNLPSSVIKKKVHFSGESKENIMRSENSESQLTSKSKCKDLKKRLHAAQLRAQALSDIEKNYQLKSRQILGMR

Structure (SMILES): CN(C)CCCOc1ccc(Cl)cc1NC(=O)Nc1cnccn1 [Example 1C, 1-[5-Chloro-2-(3-dimethyloxyamino-propoxy)-phenyl]-3-pyrazin-2-yl-urea]
- IC50 (CHK1 (h)): 41 nM
- IC50 [1]: 5030 nM
- IC50 (hERG potassium channel): 108 nM

Structure (SMILES): C[N+](C)([O-])CCCOc1ccc(Cl)cc1NC(=O)Nc1cnccn1 [Example 1F]
- IC50 (CHK1 (h)): 71 nM
- HERG Binding % @ 100 uM (extent of binding) [1]: 35% @ 100 uM
- inhibition at 10 µM (Flt3(h)): 73%
- inhibition at 10 µM (cSRC(h)): 11%
- inhibition at 10 µM (Fms(h)): 12%
- inhibition at 10 µM (Aurora-A(h)): 14%
- inhibition at 10 µM (CHK2(h)): 71%
- inhibition at 10 µM (JNK1α1(h)): 0%
- inhibition at 10 µM (MEK1(h)): 0%
- inhibition at 10 µM (CDK2/cyclinE(h)): 0%
- inhibition at 10 µM (Yes(h)): 0%
- inhibition at 10 µM (cKit(h)): 0%
- inhibition at 10 µM (PKA(h)): 0%
- inhibition at 10 µM (Tie2(h)): 11%
- inhibition at 10 µM (ZAP-70(h)): 5%
- inhibition at 10 µM (MAPK2(h)): 0%
- inhibition at 10 µM (EGFR(h)): 0%
- inhibition at 10 µM (KDR(h)): 38%
- inhibition at 10 µM (PDGFRβ(h)): 1%
- inhibition at 10 µM (PKCθ(h)): 37%
- inhibition at 10 µM (NEK2(h)): 0%
- inhibition at 10 µM (Pim-1(h)): 0%
- inhibition at 10 µM (IGF-1R(h)): 36%
- inhibition at 10 µM (FGFR1(h)): 92%
- IC50 (hERG potassium channel): 26700 nM
- activity against most other kinases apart from CHK2, FGFR1 and Flt3 (other kinases): largely inactive or only poorly active

Structure (SMILES): Cc1cnc(NC(=O)Nc2cc(Cl)ccc2OCCCN(C)C)cn1 [Example 2B, 1-[5-Chloro-2-(3-dimethylamino-propoxy)-phenyl]-3-(5-methyl-pyrazin-2-yl)-urea]
- IC50 (CHK1 (h)): 51 nM
- IC50 [1]: 2980 nM
- IC50 (hERG potassium channel): 610 nM

Structure (SMILES): Cc1cnc(NC(=O)Nc2cc(Cl)ccc2OCCC[N+](C)(C)[O-])cn1 [Example 2C, 1-[5-Chloro-2-(3-dimethyloxyamino-propoxy)-phenyl]-3-(5-methyl-pyrazin-2-yl)-urea]
- IC50 (CHK1 (h)): 128 nM
- HERG Binding % @ 100 uM (extent of binding) [1]: 3% @ 100 uM
- IC50 (hERG potassium channel): > 30000 nM
